How the values were obtained:
[1] = test system: cytochrome P450 (CYP) isoforms; assay: In vitro drug metabolism: CYP isoforms involved
sigma receptor = conditions: cited from earlier work
CYP2B6 = conditions: in vitro
healthy volunteers = conditions: up to 1 mg/kg IV or 1.8 mg/kg intramuscular; cited from earlier work
[2] = Diastolic blood pressure (vital signs)
Description: The Investigational Medicinal Product (IMP) R(−)-ketamine hydrochloride in sterile water for intravenous injection was investigated as an […] treatment of TRD. The International Union of Pure and Applied Chemistry (IUPAC) name is of the IMP is (2R)-2-(2-chlorophenyl)-2-(methylamino)cyclohexan-1-one. Subjects received the solution at either 30 mg or 60 mg dose, or a placebo. The IMP or placebo was administered on Day 1 as a single IV infusion via an electronic infusion pump over 40 minutes. The duration of study participation for each subject was up to 29 days including a screening period, a 3-day in-clinic visit, and 2 follow-up visits. 101 subjects were enrolled in approximately 20 study centers in the EU and the US.
Tympanic or temporal temperature, heart rate, blood pressure (SBP/DBP), respiratory rate, and SpO2 were assessed. Blood pressure and pulse measurements will be assessed with a completely automated device while the subject is supine or semi-supine. Manual techniques will be used only if an automated device is not available. Blood pressure and pulse measurements should be preceded by at least 5 minutes of rest for the subject in a quiet setting without distractions (e.g., television, cell phones). An abnormal blood pressure value at screening may be repeated once after 5 minutes of relaxation to determine the subject's eligibility. Blood pressure was recorded using the same arm and position (supine or semi-supine) throughout the study, where possible. Vital signs (to be taken before blood collection for laboratory tests) consisted of 1 pulse and 3 blood pressure measurements (3 consecutive blood pressure readings will be recorded at intervals of at least 1 minute). The average of the 3 blood pressure readings was recorded in the CRF. A pulse oximeter was used to measure peripheral capillary oxygen saturation (SpO2) continuously from pre-dose until 4-hours post-dose. A pulse oximeter was clipped onto the finger or foot of the subject, and light will be sent through the finger or foot and measured on the other side.
In these tables, baseline value is defined as the last non-missing value prior to study drug administration.

CN[C@@]1(c2ccccc2Cl)CCCCC1=O.Cl [R(−)-ketamine, (2R)-2-(2-chlorophenyl)-2-(methylamino)cyclohexan-1-one]
CYP isoforms involved in the metabolism [1]: primarily CYP2B6, CYP3A4/5, and CYP2C19
Higher affinity to the sigma receptor compared with S(+)-ketamine (sigma receptor): 15 fold
CYP2B6 induction (CYP2B6): inducer
Psychotomimetic and dissociative-like effects compared with S(+)-ketamine (healthy volunteers): less pronounced psychotomimetic and dissociative-like effects
Subjects with change from baseline diastolic blood pressure >25 mmHg, number ([2]; 30 mg): 1 n
Subjects with change from baseline diastolic blood pressure >25 mmHg, percent ([2]; 30 mg): 3.0%
Subjects with post-baseline diastolic blood pressure >110 mmHg, number ([2]; 30 mg): 0 n
Subjects with post-baseline diastolic blood pressure >110 mmHg, percent ([2]; 30 mg): 0.0%
Diastolic Blood Pressure: Mean ([2]; 30 mg, Day 1, 15 minutes): 77.4 mmHg
Diastolic Blood Pressure: Median ([2]; 30 mg, Day 1, 15 minutes): 79.0 mmHg
Diastolic Blood Pressure: Mean ([2]; 30 mg, Day 1, 40 minutes): 77.7 mmHg
Diastolic Blood Pressure: Median ([2]; 30 mg, Day 1, 40 minutes): 81.0 mmHg
Diastolic Blood Pressure: Mean ([2]; 30 mg, Day 1, 60 minutes): 75.4 mmHg
Diastolic Blood Pressure: Median ([2]; 30 mg, Day 1, 60 minutes): 75.0 mmHg
Diastolic Blood Pressure: Mean ([2]; 30 mg, Day 1, 2 hours): 77.3 mmHg
Diastolic Blood Pressure: Median ([2]; 30 mg, Day 1, 2 hours): 78.0 mmHg
Diastolic Blood Pressure: Mean ([2]; 30 mg, Day 1, 4 hours): 76.1 mmHg
Diastolic Blood Pressure: Median ([2]; 30 mg, Day 1, 4 hours): 76.0 mmHg
Diastolic Blood Pressure: Mean ([2]; 30 mg, Day 1, 6 hours): 75.2 mmHg
Diastolic Blood Pressure: Median ([2]; 30 mg, Day 1, 6 hours): 75.0 mmHg
Diastolic Blood Pressure: Mean ([2]; 30 mg, Day 2 - Discharge): 74.7 mmHg
Diastolic Blood Pressure: Median ([2]; 30 mg, Day 2 - Discharge): 75.0 mmHg
Diastolic Blood Pressure: Mean ([2]; 30 mg, Day 8): 75.8 mmHg
Diastolic Blood Pressure: Median ([2]; 30 mg, Day 8): 78.0 mmHg
Diastolic Blood Pressure: Mean ([2]; 30 mg, Day 15): 78.9 mmHg
Diastolic Blood Pressure: Median ([2]; 30 mg, Day 15): 79.0 mmHg
Diastolic Blood Pressure: Change from Baseline, Mean ([2]; 30 mg, to Day 1, 15 minutes): 0.5 mmHg
Diastolic Blood Pressure: Change from Baseline, Median ([2]; 30 mg, to Day 1, 15 minutes): 2.0 mmHg
Diastolic Blood Pressure: Change from Baseline, Mean ([2]; 30 mg, to Day 1, 40 minutes): 1.0 mmHg
Diastolic Blood Pressure: Change from Baseline, Median ([2]; 30 mg, to Day 1, 40 minutes): 1.0 mmHg
Diastolic Blood Pressure: Change from Baseline, Mean ([2]; 30 mg, to Day 1, 60 minutes): −1.2 mmHg
Diastolic Blood Pressure: Change from Baseline, Median ([2]; 30 mg, to Day 1, 60 minutes): −1.5 mmHg
Diastolic Blood Pressure: Change from Baseline, Mean ([2]; 30 mg, to Day 1, 2 hours): 0.5 mmHg
Diastolic Blood Pressure: Change from Baseline, Median ([2]; 30 mg, to Day 1, 2 hours): −1.0 mmHg
Diastolic Blood Pressure: Change from Baseline, Mean ([2]; 30 mg, to Day 1, 4 hours): −0.6 mmHg
Diastolic Blood Pressure: Change from Baseline, Median ([2]; 30 mg, to Day 1, 4 hours): −1.0 mmHg
Diastolic Blood Pressure: Change from Baseline, Mean ([2]; 30 mg, to Day 1, 6 hours): −1.5 mmHg
Diastolic Blood Pressure: Change from Baseline, Median ([2]; 30 mg, to Day 1, 6 hours): −3.0 mmHg
Diastolic Blood Pressure: Change from Baseline, Mean ([2]; 30 mg, to Day 2 - Discharge): −2.0 mmHg
Diastolic Blood Pressure: Change from Baseline, Median ([2]; 30 mg, to Day 2 - Discharge): −2.0 mmHg
Diastolic Blood Pressure: Change from Baseline, Mean ([2]; 30 mg, to Day 8): −1.0 mmHg
Diastolic Blood Pressure: Change from Baseline, Median ([2]; 30 mg, to Day 8): −1.0 mmHg
Diastolic Blood Pressure: Change from Baseline, Mean ([2]; 30 mg, to Day 15): 2.1 mmHg
Diastolic Blood Pressure: Change from Baseline, Median ([2]; 30 mg, to Day 15): 1.0 mmHg
Subjects with change from baseline diastolic blood pressure >25 mmHg, number ([2]; 60 mg): 1 n
Subjects with change from baseline diastolic blood pressure >25 mmHg, percent ([2]; 60 mg): 2.9%
Subjects with post-baseline diastolic blood pressure >110 mmHg, number ([2]; 60 mg): 0 n
Subjects with post-baseline diastolic blood pressure >110 mmHg, percent ([2]; 60 mg): 0.0%
Diastolic Blood Pressure: Mean ([2]; 60 mg, Day 1, 15 minutes): 78.8 mmHg
Diastolic Blood Pressure: Median ([2]; 60 mg, Day 1, 15 minutes): 79.5 mmHg
Diastolic Blood Pressure: Mean ([2]; 60 mg, Day 1, 40 minutes): 78.1 mmHg
Diastolic Blood Pressure: Median ([2]; 60 mg, Day 1, 40 minutes): 78.0 mmHg
Diastolic Blood Pressure: Mean ([2]; 60 mg, Day 1, 60 minutes): 79.5 mmHg
Diastolic Blood Pressure: Median ([2]; 60 mg, Day 1, 60 minutes): 77.0 mmHg
Diastolic Blood Pressure: Mean ([2]; 60 mg, Day 1, 2 hours): 75.7 mmHg
Diastolic Blood Pressure: Median ([2]; 60 mg, Day 1, 2 hours): 75.0 mmHg
Diastolic Blood Pressure: Mean ([2]; 60 mg, Day 1, 4 hours): 75.1 mmHg
Diastolic Blood Pressure: Median ([2]; 60 mg, Day 1, 4 hours): 74.0 mmHg
Diastolic Blood Pressure: Mean ([2]; 60 mg, Day 1, 6 hours): 75.8 mmHg
Diastolic Blood Pressure: Median ([2]; 60 mg, Day 1, 6 hours): 76.5 mmHg
Diastolic Blood Pressure: Mean ([2]; 60 mg, Day 2 - Discharge): 77.2 mmHg
Diastolic Blood Pressure: Median ([2]; 60 mg, Day 2 - Discharge): 77.0 mmHg
Diastolic Blood Pressure: Mean ([2]; 60 mg, Day 8): 78.7 mmHg
Diastolic Blood Pressure: Median ([2]; 60 mg, Day 8): 78.0 mmHg
Diastolic Blood Pressure: Mean ([2]; 60 mg, Day 15): 77.5 mmHg
Diastolic Blood Pressure: Median ([2]; 60 mg, Day 15): 78.0 mmHg
Diastolic Blood Pressure: Change from Baseline, Mean ([2]; 60 mg, to Day 1, 15 minutes): 2.2 mmHg
Diastolic Blood Pressure: Change from Baseline, Median ([2]; 60 mg, to Day 1, 15 minutes): 1.5 mmHg
Diastolic Blood Pressure: Change from Baseline, Mean ([2]; 60 mg, to Day 1, 40 minutes): 2.4 mmHg
Diastolic Blood Pressure: Change from Baseline, Median ([2]; 60 mg, to Day 1, 40 minutes): 2.0 mmHg
Diastolic Blood Pressure: Change from Baseline, Mean ([2]; 60 mg, to Day 1, 60 minutes): 3.2 mmHg
Diastolic Blood Pressure: Change from Baseline, Median ([2]; 60 mg, to Day 1, 60 minutes): 4.0 mmHg
Diastolic Blood Pressure: Change from Baseline, Mean ([2]; 60 mg, to Day 1, 2 hours): −0.1 mmHg
Diastolic Blood Pressure: Change from Baseline, Median ([2]; 60 mg, to Day 1, 2 hours): 0.0 mmHg
Diastolic Blood Pressure: Change from Baseline, Mean ([2]; 60 mg, to Day 1, 4 hours): −0.6 mmHg
Diastolic Blood Pressure: Change from Baseline, Median ([2]; 60 mg, to Day 1, 4 hours): 0.0 mmHg
Diastolic Blood Pressure: Change from Baseline, Mean ([2]; 60 mg, to Day 1, 6 hours): −0.0 mmHg
Diastolic Blood Pressure: Change from Baseline, Median ([2]; 60 mg, to Day 1, 6 hours): −1.0 mmHg
Diastolic Blood Pressure: Change from Baseline, Mean ([2]; 60 mg, to Day 2 - Discharge): 1.5 mmHg
Diastolic Blood Pressure: Change from Baseline, Median ([2]; 60 mg, to Day 2 - Discharge): 1.0 mmHg
Diastolic Blood Pressure: Change from Baseline, Mean ([2]; 60 mg, to Day 8): 3.0 mmHg
Diastolic Blood Pressure: Change from Baseline, Median ([2]; 60 mg, to Day 8): 3.0 mmHg
Diastolic Blood Pressure: Change from Baseline, Mean ([2]; 60 mg, to Day 15): 1.7 mmHg
Diastolic Blood Pressure: Change from Baseline, Median ([2]; 60 mg, to Day 15): 1.0 mmHg

From patent US20260027068A1, “METHODS OF ADM[…]-KETAMINE” (Perception Neuroscience, Inc., priority 2022, published 2026)
